Measurements reported in patent US10052320B2, “Substituted quinoxalines as FGFR kinase inhibitors” (ASTEX THERAPEUTICS LIMITED, priority 2011, dated 2018).
Read-outs that look alike come from different tables or passages of the source.

Legend:
FGFR1 (h) = FGFR1 (h) (Homo sapiens, UniProt P11362); test: FGFR1 (enzymatic assay), TR-FRET; assay type: biochemical; conditions: read-out: FGFR 1 pIC50 (converted)
Description: In a final reaction volume of 30 μL, FGFR1 (h) (25 ng/ml) was incubated with 50 mM HEPES pH 7.5, 6 mM MnCl2, 1 mM DTT, 0.1 mM Na3VO4, 0.01% Triton-X-100, 500 nM Btn-Flt3 and 5 μM ATP in the presence of compound (1% DMSO final). […] Time-Resolved Fluorescence Resonance Energy Transfer (TR-FRET) signal (ex340 nm. Em 620 nm, em 655 nm) was measured afterwards and results are expressed in RFU (Relative Fluorescence Units).

FGFR3 (h) = FGFR3 (h) (Homo sapiens, UniProt P22607); test: FGFR3 (enzymatic assay), TR-FRET; assay type: biochemical; conditions: read-out: FGFR 3 pIC50 (converted)
Chain of FGFR3 (h) (P22607 23-806): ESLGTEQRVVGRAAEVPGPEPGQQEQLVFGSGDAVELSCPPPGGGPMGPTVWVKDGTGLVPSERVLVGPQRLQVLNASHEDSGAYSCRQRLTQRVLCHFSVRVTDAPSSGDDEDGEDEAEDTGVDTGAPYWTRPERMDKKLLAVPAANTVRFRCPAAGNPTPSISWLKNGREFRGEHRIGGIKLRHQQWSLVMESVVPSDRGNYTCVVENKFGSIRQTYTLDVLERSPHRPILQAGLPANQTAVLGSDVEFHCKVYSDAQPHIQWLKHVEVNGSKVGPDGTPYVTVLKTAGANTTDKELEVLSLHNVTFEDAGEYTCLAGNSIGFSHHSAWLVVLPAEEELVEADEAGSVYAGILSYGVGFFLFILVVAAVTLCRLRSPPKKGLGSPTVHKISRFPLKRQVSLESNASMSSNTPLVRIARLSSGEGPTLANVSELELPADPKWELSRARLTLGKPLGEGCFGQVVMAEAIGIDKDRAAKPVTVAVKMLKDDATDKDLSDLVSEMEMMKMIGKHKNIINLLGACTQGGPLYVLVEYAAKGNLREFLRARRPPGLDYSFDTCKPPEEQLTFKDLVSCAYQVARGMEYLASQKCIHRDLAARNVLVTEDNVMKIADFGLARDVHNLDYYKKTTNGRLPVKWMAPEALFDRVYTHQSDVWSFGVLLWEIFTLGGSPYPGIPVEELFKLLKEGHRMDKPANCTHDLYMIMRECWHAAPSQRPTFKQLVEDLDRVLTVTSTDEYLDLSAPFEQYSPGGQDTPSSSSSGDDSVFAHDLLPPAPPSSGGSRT
Description: In a final reaction volume of 30 μL, FGFR3 (h) (40 ng/ml) was incubated with 50 mM HEPES pH 7.5, 6 mM MnCl2, 1 mM DTT, 0.1 mM Na3VO4, 0.01% Triton-X-100, 500 nM Btn-Flt3 and 25 μM ATP in the presence of compound (1% DMSO final). […] Time-Resolved Fluorescence Resonance Energy Transfer (TR-FRET) signal (ex340 nm. Em 620 nm, em 655 nm) was measured afterwards and results are expressed in RFU (Relative Fluorescence Units).

KDR (h) (VEGFR2) = KDR (h) (VEGFR2) (Homo sapiens, UniProt P35968); test: KDR (VEGFR2) (enzymatic assay), TR-FRET; assay type: biochemical
Chain of KDR (h) (VEGFR2) (P35968 20-1356): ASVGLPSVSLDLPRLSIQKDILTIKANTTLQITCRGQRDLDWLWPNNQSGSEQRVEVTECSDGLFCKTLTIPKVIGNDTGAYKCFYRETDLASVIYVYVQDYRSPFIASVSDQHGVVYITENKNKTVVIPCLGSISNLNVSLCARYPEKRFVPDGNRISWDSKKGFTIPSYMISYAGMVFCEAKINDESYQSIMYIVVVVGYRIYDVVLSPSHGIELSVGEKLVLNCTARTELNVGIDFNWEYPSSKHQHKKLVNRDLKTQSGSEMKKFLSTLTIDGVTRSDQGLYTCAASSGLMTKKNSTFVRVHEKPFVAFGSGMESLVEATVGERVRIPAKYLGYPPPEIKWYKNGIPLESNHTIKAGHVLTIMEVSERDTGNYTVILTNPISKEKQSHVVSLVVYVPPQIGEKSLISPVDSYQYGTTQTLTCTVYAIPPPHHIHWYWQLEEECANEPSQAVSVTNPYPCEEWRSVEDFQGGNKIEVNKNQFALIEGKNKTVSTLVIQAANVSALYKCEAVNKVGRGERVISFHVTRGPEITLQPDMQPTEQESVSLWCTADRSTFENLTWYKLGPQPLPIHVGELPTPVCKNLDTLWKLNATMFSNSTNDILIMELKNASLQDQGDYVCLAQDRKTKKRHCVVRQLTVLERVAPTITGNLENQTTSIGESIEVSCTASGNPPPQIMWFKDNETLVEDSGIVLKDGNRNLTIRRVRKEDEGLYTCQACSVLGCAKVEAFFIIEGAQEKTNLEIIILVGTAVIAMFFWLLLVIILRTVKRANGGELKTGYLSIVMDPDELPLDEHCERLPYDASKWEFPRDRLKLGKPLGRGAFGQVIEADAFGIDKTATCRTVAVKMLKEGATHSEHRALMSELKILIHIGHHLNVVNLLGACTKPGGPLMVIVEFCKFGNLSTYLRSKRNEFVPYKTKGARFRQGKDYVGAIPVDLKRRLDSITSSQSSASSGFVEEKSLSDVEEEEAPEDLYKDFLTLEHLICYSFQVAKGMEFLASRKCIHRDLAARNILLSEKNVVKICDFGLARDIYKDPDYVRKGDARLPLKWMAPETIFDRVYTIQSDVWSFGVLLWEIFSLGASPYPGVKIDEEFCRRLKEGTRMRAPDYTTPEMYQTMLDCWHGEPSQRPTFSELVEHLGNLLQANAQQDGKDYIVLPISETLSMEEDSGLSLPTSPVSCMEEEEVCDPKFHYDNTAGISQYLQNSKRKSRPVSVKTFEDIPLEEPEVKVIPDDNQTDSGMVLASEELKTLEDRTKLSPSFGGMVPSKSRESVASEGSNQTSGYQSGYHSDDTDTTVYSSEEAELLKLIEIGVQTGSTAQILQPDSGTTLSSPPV
Description: KDR (VEGFR2) (Enzymatic Assay)
In a final reaction volume of 30 μL, KDR (h) (150 ng/ml) was incubated with 50 mM HEPES pH 7.5, 6 mM MnCl2, 1 mM DTT, 0.1 mM Na3VO4, 0.01% Triton-X-100, 500 nM Btn-Flt3 and 3 μM ATP in the presence of compound (1% DMSO final). After incubation for 120 minutes at room temperature the reaction was stopped with 2.27 nM EU-anti P-Tyr, 7 mM EDTA, 31.25 nM SA-XL-665 and 0.02% BSA which was present for 60 minutes at room temperature. Time-Resolved Fluorescence Resonance Energy Transfer (TR-FRET) signal (ex340 nm. Em 620 nm, em 655 nm) was measured afterwards and results are expressed in RFU (Relative Fluorescence Units).

[1] = biological target: Ba/F3-FGFR1-transfected cells (Homo sapiens, UniProt P11362); test: Ba/F3-FGFR1 (minus IL3) cellular proliferation assay, Alamar Blue; assay type: cell-based; conditions: for BAF3-FGFR 1 (MIN IL3) 384 well pIC50: minus IL3, 384 well
Chain of Ba/F3-FGFR1-transfected cells (P11362 whole entry, change not shown): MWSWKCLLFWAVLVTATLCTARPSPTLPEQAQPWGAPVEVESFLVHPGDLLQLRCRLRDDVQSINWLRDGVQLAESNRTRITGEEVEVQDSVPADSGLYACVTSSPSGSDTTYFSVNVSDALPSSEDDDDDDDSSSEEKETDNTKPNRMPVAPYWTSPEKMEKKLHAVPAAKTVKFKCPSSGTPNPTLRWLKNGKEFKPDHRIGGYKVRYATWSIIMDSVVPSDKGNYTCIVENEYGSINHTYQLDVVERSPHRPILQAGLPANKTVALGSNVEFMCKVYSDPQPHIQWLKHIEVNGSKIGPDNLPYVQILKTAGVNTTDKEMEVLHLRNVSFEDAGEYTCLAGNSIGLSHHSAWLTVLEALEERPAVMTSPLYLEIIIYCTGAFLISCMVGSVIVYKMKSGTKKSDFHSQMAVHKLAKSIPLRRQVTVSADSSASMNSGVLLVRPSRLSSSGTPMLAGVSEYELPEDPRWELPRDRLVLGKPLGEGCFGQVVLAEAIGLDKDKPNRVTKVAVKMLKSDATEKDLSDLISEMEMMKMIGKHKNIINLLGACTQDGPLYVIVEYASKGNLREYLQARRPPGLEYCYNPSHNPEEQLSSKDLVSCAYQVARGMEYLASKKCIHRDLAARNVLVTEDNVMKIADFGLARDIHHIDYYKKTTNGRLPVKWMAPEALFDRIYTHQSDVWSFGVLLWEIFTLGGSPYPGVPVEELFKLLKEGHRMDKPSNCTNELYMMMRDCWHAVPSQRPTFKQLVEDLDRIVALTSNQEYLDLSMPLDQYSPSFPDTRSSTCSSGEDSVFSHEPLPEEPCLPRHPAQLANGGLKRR
Description: (§1) Ba/F3-FGFR1 (Minus IL3 or Plus IL3) (Cellular Proliferation Assay)
Cells were put in an incubator at 37° C. and 5% CO2. After 24 hours, 10 μl of Alamar Blue solution (0.5 mM K3Fe(CN)6, 0.5 mM KaFe(CN)6, 0.15 mM Resazurin and 100 mM Phosphate Buffer) was added to the wells, incubated for 4 hours at 37° C. and 5% CO2 before RFU's (Relative Fluorescence Units) (ex. 540 nm., em. 590 nm.) were measured in a flurorescence plate reader. […]
(§2) In a 96 well plate, 180 μl cell culture medium (phenol red free RPMI-1640, 10% FBS, 2 mM L-Glutamine and 50 μg/ml Gentamycin) containing 10000 cells per well of Ba/F3-FGFR1-transfected cells were pipette and 20 μl of compound dilution in DMSO was added. Cells were put in an incubator at 37° C. and 5% CO2. After 24 hours, 40 μl of Alamar Blue solution (0.5 mM K3Fe(CN)6, 0.5 mM KaFe(CN)6, 0.15 mM Resazurin and 100 mM Phosphate Buffer) was added to the wells, incubated for 4 hours at 37° C. and 5% CO2 before RFU's (Relative Fluorescence Units) (ex. 540 nm., em. 590 nm.) were measured in a flurorescence plate reader.

[2] = test system: Ba/F3-FGFR1-transfected cells in the presence of 10 ng/ml murine IL3; test: Ba/F3-FGFR1 (plus IL3) cellular proliferation counterscreen, Alamar Blue; assay type: cell-based; conditions: Mus musculus
Description: as §1
as §2, with “a 384” for “a 96”, “plate, 100 nl of compound dilution in DMSO was sprayed before adding 50” for “plate, 180”, “containing 20000” for “containing 10000”, “Ba/F3-FGFR1-transfected cells.” for “Ba/F3-FGFR1-transfected cells were pipette and 20 μl of compound dilution in DMSO was added.”, “hours, 10” for “hours, 40”
As a counterscreen the same experiment was performed in the presence of 10 ng/ml murine IL3.
as §2

[3] = biological target: Ba/F3-FGFR4-transfected cells (Homo sapiens, UniProt P22455); test: Ba/F3-FGFR4 cellular proliferation assay, Alamar Blue; assay type: cell-based
Chain of Ba/F3-FGFR4-transfected cells (P22455 whole entry, change not shown): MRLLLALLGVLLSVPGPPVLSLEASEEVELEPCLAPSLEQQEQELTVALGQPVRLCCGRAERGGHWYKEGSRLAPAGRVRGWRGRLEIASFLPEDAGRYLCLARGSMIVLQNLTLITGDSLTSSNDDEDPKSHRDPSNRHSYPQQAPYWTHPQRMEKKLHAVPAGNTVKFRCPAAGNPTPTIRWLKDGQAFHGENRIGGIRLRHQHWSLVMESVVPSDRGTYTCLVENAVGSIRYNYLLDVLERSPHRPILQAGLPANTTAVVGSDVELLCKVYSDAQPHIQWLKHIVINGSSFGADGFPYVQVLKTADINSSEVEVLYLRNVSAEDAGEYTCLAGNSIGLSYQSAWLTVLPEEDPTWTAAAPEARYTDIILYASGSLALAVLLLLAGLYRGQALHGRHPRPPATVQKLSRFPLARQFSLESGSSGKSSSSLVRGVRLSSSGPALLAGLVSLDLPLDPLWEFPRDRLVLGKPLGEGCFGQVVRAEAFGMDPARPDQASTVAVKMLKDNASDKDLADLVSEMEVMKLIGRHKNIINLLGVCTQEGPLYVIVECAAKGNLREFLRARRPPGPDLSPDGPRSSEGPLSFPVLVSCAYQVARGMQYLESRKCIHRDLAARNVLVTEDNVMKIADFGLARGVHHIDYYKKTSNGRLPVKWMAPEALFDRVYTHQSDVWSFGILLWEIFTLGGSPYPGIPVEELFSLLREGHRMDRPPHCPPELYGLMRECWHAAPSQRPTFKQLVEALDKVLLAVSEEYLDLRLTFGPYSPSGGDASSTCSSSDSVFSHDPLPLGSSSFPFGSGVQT
Description: Ba/F3-FGFR4 (Cellular Proliferation Assay)
as §2, with “a 384” for “a 96”, “plate, 100 nl of compound dilution in DMSO was sprayed before adding 50” for “plate, 180”, “containing 20000” for “containing 10000”, “of Ba/F3-FGFR4-transfected cells.” for “of Ba/F3-FGFR1-transfected cells were pipette and 20 μl of compound dilution in DMSO was added.”, “hours, 10” for “hours, 40”

[4] = plus IL3, 384 well, read-out: BAF3-FGFR 1 (PLUS IL3) 384 well pIC50 (converted)

Chain of FGFR1 (h) (P11362 22-822): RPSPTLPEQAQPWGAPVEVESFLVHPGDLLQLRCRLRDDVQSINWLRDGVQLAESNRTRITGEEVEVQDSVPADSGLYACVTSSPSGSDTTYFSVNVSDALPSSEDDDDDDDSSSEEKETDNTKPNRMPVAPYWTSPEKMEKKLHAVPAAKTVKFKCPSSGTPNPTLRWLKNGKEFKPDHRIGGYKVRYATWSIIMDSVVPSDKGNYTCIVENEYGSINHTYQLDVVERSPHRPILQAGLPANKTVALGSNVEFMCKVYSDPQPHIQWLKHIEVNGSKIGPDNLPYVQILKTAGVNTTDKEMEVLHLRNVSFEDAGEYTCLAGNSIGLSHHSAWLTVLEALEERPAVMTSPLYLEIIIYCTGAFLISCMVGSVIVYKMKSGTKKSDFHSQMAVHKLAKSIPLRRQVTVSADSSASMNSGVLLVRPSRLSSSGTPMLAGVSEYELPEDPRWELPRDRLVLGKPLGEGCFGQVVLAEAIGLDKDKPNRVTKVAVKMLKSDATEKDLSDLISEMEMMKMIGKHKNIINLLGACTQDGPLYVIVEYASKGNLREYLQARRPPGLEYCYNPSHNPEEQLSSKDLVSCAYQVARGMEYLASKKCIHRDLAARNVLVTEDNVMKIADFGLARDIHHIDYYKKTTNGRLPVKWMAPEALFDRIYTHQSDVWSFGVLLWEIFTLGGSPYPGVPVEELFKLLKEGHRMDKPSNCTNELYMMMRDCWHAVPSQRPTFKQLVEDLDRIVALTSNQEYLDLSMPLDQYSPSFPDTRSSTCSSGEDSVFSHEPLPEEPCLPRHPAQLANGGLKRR

Compound | IC50 (FGFR1 (h)) [nM] | IC50 (FGFR3 (h)) [nM] | IC50 (KDR (h) (VEGFR2)) [nM] | BAF3-FGFR 1 (MIN IL3) 384 well pIC50 [1] | BAF3-FGFR4 pIC50 [3] | BAF3-FGFR4 pIC50 ([3]; 384 well) | BAF3-FGFR 1 (MIN IL3) 96 well pIC50 ([1]; minus IL3, 96 well) | IC50 [2, 4] [nM] | IC50 ([2]; plus IL3, 96 well, read-out: BAF3-FGFR 1 (PLUS IL3) 96 well pIC50 (converted)) [nM]
COc1cc(OC)cc(N(CCCNCC(F)(F)F)c2ccc3ncc(-c4ccnc(Cl)c4)nc3c2)c1 [Compound 145] | 115 | 97.7 | > 1000 | <5 | <5.35 | – | – | > 10000 | –
COc1cc(OC)cc(N(CC2CC2)c2ccc3ncc(C#Cc4cncn4C)nc3c2)c1 [Compound 22] | 28.2 | 34.7 | 1660 | <5 | – | <5 | – | > 10000 | –
COc1cc(OC)cc(N(CCO)c2ccc3ncc(C4=CCN(C(=O)OC(C)(C)C)C4)nc3c2)c1 [Compound 173] | 29.5 | 10.2 | 479 | 5.68 | 5.6 | – | – | > 10000 | –
COc1cc(OC)cc(N(CCO)c2ccc3ncc(C4CCN(C(=O)OC(C)(C)C)CC4)nc3c2)c1 [Compound 185] | 316 | 110 | > 1000 | <5 | <5 | – | – | > 10000 | –
COc1cc(OC)cc(N(CCO)c2ccc3ncc(-c4ccc(N5CCN(C(=O)OC(C)(C)C)CC5)cc4)nc3c2)c1 [Compound 156] | 45.7 | 24 | 407 | 5.7 | 5.4 | – | – | 8910 | –
COc1cc(OC)cc(N(CC#Cc2ncccc2OC)c2ccc3ncc(-c4cccnc4)nc3c2)c1 [Compound 183] | 155 | 162 | > 1000 | 6.76 | ~6.5 | – | – | > 10000 | –
COc1cc(OC)cc(N(CCO)c2ccc3ncc(-c4ccccc4CCO)nc3c2)c1 [Compound 151] | 282 | 200 | > 1000 | 5.52 | <5 | – | – | > 10000 | –
COc1cc(OC)cc(N(CCCO)c2ccc3ncc(-c4ccnc(C(=O)N5CCOCC5)c4)nc3c2)c1 [Compound 43] | 15.8 | 3.8 | 245 | 6.28 | 6.0 | – | – | > 10000 | –
COc1cc(OC)cc(N(CCCNC(C)C)c2ccc3ncc(-c4ccnc(NC(=O)NC(C)C)c4)nc3c2)c1 [Compound 131] | 2.09 | 5.89 | 200 | 6.44 | 6.0 | – | – | 3980 | –

More lines, main results first:

IC50 (FGFR1 (h)) [nM] | IC50 (FGFR3 (h)) [nM] | IC50 (KDR (h) (VEGFR2)) [nM] | BAF3-FGFR 1 (MIN IL3) 384 well pIC50 [1] | BAF3-FGFR4 pIC50 [3] | BAF3-FGFR4 pIC50 ([3]; 384 well) | BAF3-FGFR 1 (MIN IL3) 96 well pIC50 ([1]; minus IL3, 96 well) | Compound | IC50 [2, 4] [nM] | IC50 ([2]; plus IL3, 96 well, read-out: BAF3-FGFR 1 (PLUS IL3) 96 well pIC50 (converted)) [nM]
19.5 | 126 | 112 | 5.89 | 5.7 | – | – | COc1cc(OC)cc(N(CCNC(C)C)c2ccc3ncc(C(=O)NCCCN4CCCCC4)nc3c2)c1 [Compound 182] | > 10000 | –
5.89 | 44.7 | 617 | 5.42 | <5 | – | – | COc1cc(OC)cc(N(CCNC(C)C)c2ccc3ncc(NCC4CCNCC4)nc3c2)c1 [Compound 161] | > 10000 | –
1.66 | 11 | 251 | 7.13 | 6.4 | – | – | COc1cc(OC)cc(N(CCNC(C)C)c2ccc3ncc(-n4cnc(COC(C)=O)c4)nc3c2)c1 [Compound 167] | > 10000 | –
2 | 12.3 | 269 | 6.46 | 6.3 | – | – | COc1cc(OC)cc(N(CCNC(C)C)c2ccc3ncc(-c4ccnc(C(=O)NCCCN)c4)nc3c2)c1 [Compound 146] | > 10000 | –
269 | 2630 | > 10000 | <5 | <5 | – | <5 | COc1cc(OC)cc(N(CC2CC2)c2ccc3ncc(C(=O)Nc4cncn4C)nc3c2)c1 [Compound 27] | > 10000 | > 10000
83.2 | 56.2 | > 1000 | 6.8 | 6.9 | – | – | COc1cc(OC)cc(N(CC#Cc2ncccn2)c2ccc3ncc(-c4cccnc4)nc3c2)c1 [Compound 2] | 7410 | –
36.3 | 61.7 | > 1000 | <5 | <5 | – | – | COc1cc(OC)cc(N(CCCNCC(F)(F)F)c2ccc3ncc(-c4ccnc(C(=O)NCCCN)c4)nc3c2)c1 [Compound 148] | > 10000 | –
